# Laboratory results reported in US6930106B2, “Inhibitors of HCV NS5B polymerase” (Pharmacia & UpJohn Company, priority 2002, dated 2005).
# Structures can show the parent of a compound that is named as a salt.
# Target: HCV NS5b RNA dependent RNA polymerase (Hepatitis C virus genotype 1a, UniProt P27958)
# Experiment: HCV NS5b RNA dependent RNA polymerase inhibition assay (3H-GTP incorporation, scintillation proximity)
# Type: biochemical
# Details: inhibition of HCV NS5b polymerase activity; Table 2; read-out: concentration in micromolar required for 50% inhibition
# Experimental: Compounds of the present invention are evaluated for inhibition of HCV NS5b RNA dependent RNA polymerase activity in assays comprised of a suitable buffer (e.g. 20 mM Tris-HCl pH 7.6), primed or unprimed RNA templates, GTP, ATP, CTP, and UTP, MnCl2 or MgCl2, and reducing agent such as 10 mM dithiothreitol or 2-mercaptoethanol. The assay buffer may contain salts such as ammonium acetate, KCl, or NaCl, and nonionic or zwitterionic detergents such as Tween or CHAPS. The incorporation of nucleotides into the complementary RNA strand may be monitored by the incorporation of radiolabeled NTP (e.g. ^3H labeled GTP). Suitable RNA templates for de novo initiation in the presence of 20-50 μM GTP or ATP are the homopolymers poly rC and poly rU, respectively. Heteropolymer RNA templates with 1-3 cytidine (C) bases or 1-3 uridine (U) bases at the 3′ terminus of the template may also be used for de novo initiation. Primed RNA templates such as poly rC primed with oligo rG or oligo dG, and poly rA primed with oligo rU may also be used to detect polymerase activity. The primers may be any length greater than 10 bases. A biotin residue may be added to the 5′ end of the template or the 5′ end of the primer to capture the template and the newly synthesized, complementary strand on avidin coated spheres. […]
# Sequence of HCV NS5b RNA dependent RNA polymerase (P27958 2421-3011): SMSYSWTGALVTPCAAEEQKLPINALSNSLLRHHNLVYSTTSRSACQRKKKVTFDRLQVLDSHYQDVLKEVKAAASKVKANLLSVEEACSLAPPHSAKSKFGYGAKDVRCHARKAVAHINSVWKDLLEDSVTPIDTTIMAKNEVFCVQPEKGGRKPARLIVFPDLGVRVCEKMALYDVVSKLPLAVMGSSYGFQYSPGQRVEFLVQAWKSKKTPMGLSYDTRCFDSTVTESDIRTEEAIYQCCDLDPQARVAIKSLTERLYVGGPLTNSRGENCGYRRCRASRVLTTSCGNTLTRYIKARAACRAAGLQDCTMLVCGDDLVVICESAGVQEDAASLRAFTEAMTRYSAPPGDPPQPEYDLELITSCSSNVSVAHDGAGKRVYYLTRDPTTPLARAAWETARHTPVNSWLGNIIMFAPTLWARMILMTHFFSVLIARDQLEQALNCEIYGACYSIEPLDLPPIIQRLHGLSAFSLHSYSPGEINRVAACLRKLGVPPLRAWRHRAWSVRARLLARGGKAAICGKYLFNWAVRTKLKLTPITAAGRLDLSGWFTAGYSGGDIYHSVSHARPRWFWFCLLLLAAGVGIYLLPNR
row,IC50,SMILES
1,1.42 µM,"NCc1ccc(Nc2ccc(C(F)(F)F)cc2NC(=O)c2cc(Cl)c(Cl)cc2C(=O)O)cc1 [i., 2-[[[2-[[4-(Aminomethyl)phenyl]amino]-5-(trifluoromethyl)phenyl]amino]carbonyl]-4,5-dichlorobenzoic acid monohydrochloride]"
2,1.74 µM,"N#Cc1ccc(Nc2ccc(C(F)(F)F)cc2NC(=O)c2ccccc2C(=O)O)cc1 [xvii., 2-({[2-[(4-cyanophenyl)amino]-5-(trifluoromethyl)phenyl]amino}carbonyl)benzoic acid]"
